Measurements as given in US20250263408A1 (Uniquest Pty Ltd, priority 2022, published 2025).

Assays:
Ba/F3-Syk cells = target: T1, Ba/F3-Syk cells (Homo sapiens, UniProt P43405); experiment: Ba/F3 Proliferation Assay, Ba/F3-Syk cells (Resazurin); type: cell-based; settings: 48-hour incubation
T1 construct: fused on or other part: Possible but unprinted fusion partner: TEL (ETV6), the usual partner for Ba/F3 lines transformed by Syk; Nothing on a partner is printed

[1] = test system: Ba/F3-WT (wild type) cells; experiment: Ba/F3 Proliferation Assay, Ba/F3-WT (wild type) cells with mIL-3 (Resazurin); type: cell-based; settings: Ba/F3-WT cells +mIL-3, 48-hour incubation

EC50 (Ba/F3-Syk cells) [nM] | EC50 ([1]; Mus musculus, BaF3, 48 h) [nM] | EC50 [1] [nM] | Compound
274 |  | 1200 | 7-(1-methyl-1H-pyrrol~3-yl)-5-{[(2S)-2-methylmorpholin-2-yl]methoxy}-1,6-naphthyridine [Compound 10.7]
46.3 | 1070 |  | Cn1cc(-c2cc(OC[C@@H]3CNCC4(CCC4)O3)c3cccnc3c2)cn1 [Compound 11.7, 7-(1-methyl-1H-pyrazol-4-yl)-5-{[(6S)-5-oxa-8-azaspiro[3.5]nonan-6-yl]methoxy}quinoline]
1170 | > 10000 |  | C=Cc1cnc2cc(-c3cnn(C(C)(C)C)c3)nc(OC[C@@H]3CNCC(C)(C)O3)c2c1 (stereo in doubt) [Compound 14.8, 7-(1-tert-butyl-1H-pyrazol-4-yl)-5-[(6,6-dimethylmorpholin-2-yl)methoxy]-3-ethenyl-1,6-naphthyridine]
428 | 1200 |  | CC(C)(C)c1ccc(-c2cc(OC[C@@H]3CNCCO3)c3cccnc3c2)s1 [Compound 14.5, 7-(5-tert-butylthiophen-2-yl)-5-{[(2S)-morpholin-2-yl]methoxy}quinoline]
637 | 8460 |  | CC1(C)CNC[C@@H](COc2cc(-c3cnn4c3CCCC4)cc3ncccc23)O1 [Compound 11.2, 5-{[(2S)-6,6-dimethylmorpholin-2-yl]methoxy}-7-{4H,5H,6H,7H-pyrazolo[1,5-a]pyridin-3-yl}quinoline]
121 | 1700 |  | C[C@@H](Oc1cc(-c2ccn(C)c2)cc2ncccc12)[C@@H]1CNCCO1 [Compound 11.10, 7-(1-methyl-1H-pyrrol-3-yl)-5-[(1R)-1-[(2S)-morpholin-2-yl]ethoxy]quinoline]
44.9 | 1070 |  | Cc1cnc2cc(-c3cnn(C(C)C)c3)nc(OC[C@@H]3CNCC(C)(C)O3)c2c1 [Compound 14.10, 5-{[(2S)-6,6-dimethylmorpholin-2-yl]methoxy}-3-methyl-7-[1-(propan-2-yl)-1H-pyrazol-4-yl]-1,6-naphthyridine]
1210 | > 10000 |  | Cn1ccc(-c2cc3ncccc3c(O[C@@H]([C@@H]3CNCCO3)C(F)(F)F)n2)c1 [Compound 13.3, 7-(1-methyl-1H-pyrrol-3-yl)-5-[(1S)-2,2,2-trifluoro-1-[(2S)-morpholin-2-yl]ethoxy]-1,6-naphthyridine]
36.2 | 5560 |  | C[C@@H]1NCCO[C@@H]1COc1nc(-c2cnn(C(C)(C)C)c2)cc2ncccc12 [Compound 13.6, 7-(1-tert-butyl-1H-pyrazol-4-yl)-5-{[(2S,3S)-3-methylmorpholin-2-yl]methoxy}-1,6-naphthyridine]
29.1 | 1620 |  | CC(C)n1cc(-c2cc(OC[C@@H]3CNCC4(CC4)O3)c3nccnc3c2)cn1 [Compound 12.2, 5-{[(5S)-4-oxa-7-azaspiro[2.5]octan-5-yl]methoxy}-7-[1-(propan-2-yl)-1H-pyrazol-4-yl]quinoxaline]
5.9 | 1220 |  | Cc1ccnc2cc(-c3cnn(C(C)(C)C)c3)cc(OC[C@@H]3CNCC(C)(C)O3)c12 [Compound 14.9, 7-(1-tert-butyl-1H-pyrazol-4-yl)-5-{[(2S)-6,6-dimethylmorpholin-2-yl]methoxy}-4-methylquinoline]

More lines, now with the values behind:

Compound | EC50 (Ba/F3-Syk cells) [nM] | EC50 ([1]; Mus musculus, BaF3, 48 h) [nM] | EC50 [1] [nM]
COCCn1ccc(-c2cc(OC[C@@H]3CNCC4(CCC4)O3)c3nccnc3c2)c1 [Compound 8.18, 7-[1-(2-methoxyethyl)-1H-pyrrol-3-yl]-5-{[(6S)-5-oxa-8-azaspiro[3.5]nonan-6-yl]methoxy}quinoxaline] | 8.4 | 335 | 
c1cnc2cc(-c3ccn(C4COC4)c3)cc(OC[C@@H]3CNCC4(CC4)O3)c2c1 [Compound 7.16, 5-{[(5S)-4-oxa-7-azaspiro[2.5]octan-5-yl]methoxy}-7-[1-(oxetan-3-yl)-1H-pyrrol-3-yl]quinoline] | 19.8 | 1710 | 
c1cnc2cc(-c3cnn(CC4CC4)c3)nc(OC[C@@H]3CNCCO3)c2c1 [Compound 6.12, 7-[1-(cyclopropylmethyl)-1H-pyrazol-4-yl]-5-{[(2S)-morpholin-2-yl]methoxy}-1,6-naphthyridine] | 66.7 | 994 | 
Cc1cc(-c2cc3ncccc3c(OC[C@@H]3CNCCO3)n2)sc1Cl [Compound 2.35, 7-(5-chloro-4-methylthiophen-2-yl)-5-{[(2S)-morpholin-2-yl]methoxy}-1,6-naphthyridine] | 667 | 619 | 
CC(C)(C)n1cc(-c2cc3ncccc3c(OC[C@H]3OC[C@@H]4C[C@H]3N4)n2)cn1 (relative stereo) [Compound 2.97, 7-(1-tert-butyl-1H-pyrazol-4-yl)-5-{[rel-(1R,2S,5S)-3-oxa-6-azabicyclo[3.1.1]heptan-2-yl]methoxy}-1,6-naphthyridine] | 347 |  | 4240
CC(C)n1ccc(-c2cc(O[C@H](C)[C@@H]3CNCCO3)c3nccnc3c2)c1 [Compound 8.13] | 7.3 |  | 371
FC1(F)CC1n1ccc(-c2cc3ncccc3c(OC[C@@H]3CNCCO3)n2)c1 (stereo partly drawn) [Compound 6.17, 7-[1-(2,2-difluorocyclopropyl)-1H-pyrrol-3-yl]-5-{[(2S)-morpholin-2-yl]methoxy}-1,6-naphthyridine] | 79.9 | 2400 | 
CC(F)(F)Cn1cc(-c2cc3ncccc3c(OC[C@@H]3CNCC(C)(C)O3)n2)cn1 [Compound 6.39, 7-[1-(2,2-difluoropropyl)-1H-pyrazol-4-yl]-5-{[(2S)-6,6-dimethylmorpholin-2-yl]methoxy}-1,6-naphthyridine] | 21.4 | 1520 | 
CC1(C)CNC[C@@H](COc2nc(-c3cnn(C4(C)CCC4)c3)cc3ncccc23)O1 [Compound 2.87, 5-{[(2S)-6,6-dimethylmorpholin-2-yl]methoxy}-7-[1-(1-methylcyclobutyl)-1H-pyrazol-4-yl]-1,6-naphthyridine] | 11.2 | 1100 | 
Cn1cc(-c2cc3ncccc3c(OC[C@@H]3CN[C@H]4CCC[C@H]4O3)n2)cn1 (racemic) [Compound 2.53, 5-{[rel-(2R,4aR,7aS)-octahydrocyclopenta[b][1,4]oxazin-2-yl]methoxy}-7-(1-methyl-1H-pyrazol-4-yl)-1,6-naphthyridine] | 129 | 2560 | 
CC(C)(C)n1ccc(-c2cc(OC[C@@H]3CNCC4(CC4)O3)c3cccnc3c2)c1 [Compound 3.18, 7-(1-tert-butyl-1H-pyrrol-3-yl)-5-{[(5S)-4-oxa-7-azaspiro[2.5]octan-5-yl]methoxy}quinoline] | 23.1 | 5420 | 
Cn1cc(-c2cc(OC[C@@H]3CNCCO3)c3cccnc3c2)cn1 [Compound 2, 7-(1-methyl-1H-pyrazol-4-yl)-5-{[(2S)-morpholin-2-yl]methoxy}quinoline] | 166 | 2430 | 
CC(C)n1ccc(-c2cc(OC[C@@H]3CNCC4(CC4)O3)c3cccnc3c2)c1 [Compound 7.13, 5-{[(5S)-4-oxa-7-azaspiro[2.5]octan-5-yl]methoxy}-7-[1-(propan-2-yl)-1H-pyrrol-3-yl]quinoline] | 22.4 | 4020 | 
CC(C)n1ccc(-c2cc(OC[C@@H]3CNCC4(CC4)O3)c3nccnc3c2)c1 [Compound 8.2, 5-{[(5S)-4-oxa-7-azaspiro[2.5]octan-5-yl]methoxy}-7-[1-(propan-2-yl)-1H-pyrrol-3-yl]quinoxaline] | 22.1 | 614 | 
CCn1ccc(-c2cc(OC[C@@H]3CNCC4(CCC4)O3)c3nccnc3c2)c1 [Compound 8.16, 7-(1-ethyl-1H-pyrrol-3-yl)-5-{[(6S)-5-oxa-8-azaspiro[3.5]nonan-6-yl]methoxy}quinoxaline] | 9.4 | 822 | 
CCn1ccc(-c2cc(OC[C@@H]3CNCCO3)c3cccnc3c2)c1 [Compound 7.20, 7-(1-ethyl-1H-pyrrol-3-yl)-5-{[(2S)-morpholin-2-yl]methoxy}quinoline] | 40 | 1690 | 
C[C@H](Oc1nc(-c2ccn(C)c2)cc2ncccc12)[C@@H]1CNCC(C)(C)O1 [Compound 2.64, 5-[(1S)-1-[(2S)-6,6-dimethylmorpholin-2-yl]ethoxy]-7-(1-methyl-1H-pyrrol-3-yl)-1,6-naphthyridine] | 253 | > 10000 | 
C[C@@H](Oc1nc(-c2cnn(C)c2)cc2ncccc12)[C@@H]1CNCC(C)(C)O1 [Compound 2.83, 5-[(1R)-1-[(2S)-6,6-dimethylmorpholin-2-yl]ethoxy]-7-(1-methyl-1H-pyrazol-4-yl)-1,6-naphthyridine] | 34.2 | 1650 | 
FC1(F)CC1n1ccc(-c2cc(OC[C@@H]3CNCCO3)c3cccnc3c2)c1 (stereo partly drawn) [Compound 7.7, 7-[1-(2,2-difluorocyclopropyl)-1H-pyrrol-3-yl]-5-{[(2S)-morpholin-2-yl]methoxy}quinoline] | 86.5 | 4330 | 
CCn1ccc(-c2cc(O[C@H](C)[C@@H]3CNCCO3)c3cccnc3c2)c1 [Compound 7.18, 7-(1-ethyl-1H-pyrrol-3-yl)-5-[(1R)-1-[(2S)-morpholin-2-yl]ethoxy]quinoline] | 53.7 | 1750 | 
c1cnc2cc(-c3ccn(C4CCC4)c3)cc(OC[C@@H]3CNCCO3)c2c1 [Compound 7.3, 7-(1-cyclobutyl-1H-pyrrol-3-yl)-5-{[(2S)-morpholin-2-yl]methoxy}quinoline] | 74 | 2880 | 
CCn1ccc(-c2cc(OC[C@@H]3CNCCO3)c3nccnc3c2)c1 [Compound 8.22, 7-(1-ethyl-1H-pyrrol-3-yl)-5-{[(2S)-morpholin-2-yl]methoxy}quinoxaline] | 12.6 | 655 | 
C[C@@H]1O[C@@H](COc2nc(-c3cnn(C(C)(C)C)c3)cc3ncccc23)CN[C@@H]1C (racemic) [Compound 2.80, 7-(1-tert-butyl-1H-pyrazol-4-yl)-5-{[rel-(2S,5S,6R)-5,6-dimethylmorpholin-2-yl]methoxy}-1,6-naphthyridine] | 36 | 1600 | 
